Experimental data published in ChEMBL document CHEMBL3739280, “12,17-Cyclojatrophane and Jatrophane Constituents of Euphorbia welwitschii” (J Nat Prod, 2015).

What was measured:
[1] = Antiproliferative activity against human EPG85-257RDB cells after 5 days by SRB assay; type: functional, cell-based; details: 120 h
[2] = Resistance index, ratio IC50 for human EPG85-257RDB cells to IC50 for human EPG85-257 cells; type: functional
[3] = Antiproliferative activity against human EPP85-181RN cells after 5 days by SRB assay; type: functional, cell-based; details: 120 h
[4] = Resistance index, ratio IC50 for human EPP85-181RN cells to IC50 for human EPP85-181P cells; type: functional
[5] = Antiproliferative activity against human EPP85-181RDB cells after 5 days by SRB assay; type: functional, cell-based; details: 120 h
[6] = Resistance index, ratio IC50 for human EPP85-181RDB cells to IC50 for human EPP85-181P cells; type: functional

C=C1[C@H](OC(=O)C(C)C)[C@@H](OC(=O)C(C)C)[C@@H](OC(=O)c2cccnc2)C(C)(C)[C@H](O)[C@H]2O[C@@]3(C[C@H](C)[C@H](OC(C)=O)[C@@H]3[C@H]1OC(C)=O)C(=O)[C@H]2C
IC50 [1]: 17.2 µM
Ratio IC50 [2]: 0.6

C=C1[C@H](OC(=O)C(C)C)[C@@H](OC(=O)C(C)C)[C@@H](OC(=O)c2cccnc2)C(C)(C)[C@H]2O[C@@H]2[C@@H](C)C(=O)[C@@]2(O)C[C@H](C)[C@H](OC(C)=O)[C@@H]2[C@H]1OC(C)=O
IC50 [1]: 3.6 µM
Ratio IC50 [2]: 0.1
IC50 [3]: 21.3 µM
Ratio IC50 [4]: 0.7
IC50 [5]: 18.2 µM
Ratio IC50 [6]: 0.6
